# Results reported in patent publication US10538528B2, “5H-pyrrolo[2,3-D]pyrimidin-6(7H)-one derivative” (Taiho Pharmaceutical Co., Ltd., priority 2016, dated 2020).
# pIC50: −log10 of the molar value.
# What was measured:
# Type in all cases: biochemical
# human Akt1 = human Akt1 (Homo sapiens (Human), UniProt P31749); assay: Inhibitory effects on Akt1 kinase activity (TR-FRET, biotinylated Crosstide); conditions: Akt1, ATP 150 μM, pre-incubation 120 minutes at 25° C.; read-out: AKT inhibitory activity IC50
# Method: Akt1 was prepared and assays of inhibitory activity of the compound according to the present invention against Akt1 kinase activity in vitro were conducted according to the method described in Biochem. J., vol. 385, pp. 399-408, 2005 and Cancer Res., vol. 68, pp. 2366-2374, 2008. In the preparation of Akt1 protein, human Akt1 tagged with the middle T antigen was expressed in an insect cell Sf9, Akt1 was prepared through affinity purification and activation by PDK1, and the resultant was stored at −80° C. until the inhibition assays of the compounds. In the inhibition assay of the compounds, Akt1 and the compound according to the present invention were subjected to pre-incubation at 25° C. for 120 minutes in a reaction buffer (15 mM Tris-HCl, pH 7.5, 0.01% Tween-20, 2 mM DTT). Subsequently, biotinylated Crosstide (biotin-[…], Millipore), MgCl2, and ATP were added as substrates at the final concentration of 500 nM, 10 mM, and 150 μM, respectively, and the reaction was allowed to proceed at 25° C. for 60 minutes. EDTA was added to the final concentration of 40 mM to terminate the reaction, a detection liquid containing the Eu-anti-phospho-Crosstide antibody (PerkinElmer) and SureLight APC-SA (PerkinElmer) at the final concentration of 0.5 nM and 62.5 nM, respectively was added, and the reaction was allowed to proceed at room temperature for 2 hours. In the end, the fluorescence levels irradiated with an excitation light of 337 nm were assayed at two different wavelength levels (i.e., 620 nm and 665 nm) using PI-HERAstar FS (BMG LABTECH) or PHERAstar (BMG LABTECH). The level of the phosphorylation reaction was determined on the basis of the ratio of fluorescence levels at two wavelength levels, and the concentration of the compound at which phosphorylation could be inhibited by 50% was defined as the IC50 level (nM) and shown in Table 2.
# As reference compounds, conventional Comparative Example A (WO 2010/056563 (Example 31)) and Comparative Example B having inhibitory activity against Akt were used.
# Rsk1 = Rsk1 (Homo sapiens (Human), UniProt Q15418); assay: Inhibitory effects on Rsk1 kinase activity (QSS Assist FP assay kit); conditions: Rsk1, ATP 30 μM; read-out: Rsk inhibitory activity IC50
# Method: Inhibitory activity of the compound according to the present invention on Rsk1 kinase activity in vitro was assayed using the QSS Assist™ FP assay kit (Carna Biosciences, Inc.).
# In the inhibition assay of inhibitory activity of the compound, the test compound was diluted by serial dilution with dimethyl sulfoxide (DMSO). Subsequently, an Rsk1 protein, a substrate peptide (final concentration: 100 nM), magnesium chloride (final concentration: 10 mM), ATP (final concentration: 30 μM), and the solution of the test compound in DMSO (DMSO final concentration: 5%) were added to the kinase reaction buffer (20 mM HEPES (pH 7.4), 2 mM dithiothreitol, 0.01% Tween-20), and the mixture was incubated at 25° C. for 40 minutes to perform the kinase reaction. The IMAP Progressive Binding Reagent diluted to 400-fold with the IMAP Progressive Binding Buffer A (Molecular Devices, LLC) was added to terminate the kinase reaction.
# S6K1 = S6K1 (Homo sapiens (Human), UniProt P23443); assay: Inhibitory effects on S6K1 kinase activity (QSS Assist FP assay kit); conditions: S6K1, ATP 25 μM; read-out: S6K inhibitory activity IC50
# Method: Inhibitory activity of the compound according to the present invention on S6K1 kinase activity in vitro was assayed using the QSS Assist™ FP assay kit (Carna Biosciences, Inc.).
# In the inhibition assay for inhibitory activity of the compound, the test compound was diluted by serial dilution with dimethyl sulfoxide (DMSO). Subsequently, an S6K protein, a substrate peptide (final concentration: 100 nM), magnesium chloride (final concentration: 5 mM), ATP (final concentration: 25 μM), and the solution of the test compound in DMSO (final DMSO concentration: 5%) were added to the kinase reaction buffer (20 mM HEPES (pH 7.4), 2 mM dithiothreitol, 0.01% Tween-20), and the mixture was incubated at 25° C. for 30 minutes to perform the kinase reaction. The IMAP Progressive Binding Reagent diluted to 400-fold with the IMAP Progressive Binding Buffer A (Molecular Devices, LLC) was added thereto to terminate the kinase reaction. The reaction product was allowed to stand at room temperature in the dark for 120 minutes and assayed with the use of PHERAstar (BMG LABTECH; excitation wavelength: 485 nm; detection wavelength: 520 nm). The level of phosphorylation reaction was determined based on the degree of fluorescence polarization, and the concentration of the compound at which phosphorylation could be inhibited by 50% was defined as the IC50 level (nM) and shown in Table 4.
# human Akt1, sequence (P31749 whole entry): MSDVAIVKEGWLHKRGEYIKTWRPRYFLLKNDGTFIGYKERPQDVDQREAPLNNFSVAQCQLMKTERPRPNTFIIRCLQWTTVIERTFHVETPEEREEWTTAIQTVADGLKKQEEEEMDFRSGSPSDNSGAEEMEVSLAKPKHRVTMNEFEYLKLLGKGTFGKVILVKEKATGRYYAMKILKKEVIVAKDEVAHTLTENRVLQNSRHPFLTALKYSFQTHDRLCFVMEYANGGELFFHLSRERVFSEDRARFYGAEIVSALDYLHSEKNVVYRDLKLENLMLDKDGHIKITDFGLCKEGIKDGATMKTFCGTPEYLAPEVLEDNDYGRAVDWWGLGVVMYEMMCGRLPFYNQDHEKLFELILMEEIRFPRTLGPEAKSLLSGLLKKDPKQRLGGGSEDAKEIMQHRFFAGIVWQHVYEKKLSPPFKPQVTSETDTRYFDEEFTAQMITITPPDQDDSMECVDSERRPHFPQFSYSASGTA
# S6K1, sequence (P23443 whole entry): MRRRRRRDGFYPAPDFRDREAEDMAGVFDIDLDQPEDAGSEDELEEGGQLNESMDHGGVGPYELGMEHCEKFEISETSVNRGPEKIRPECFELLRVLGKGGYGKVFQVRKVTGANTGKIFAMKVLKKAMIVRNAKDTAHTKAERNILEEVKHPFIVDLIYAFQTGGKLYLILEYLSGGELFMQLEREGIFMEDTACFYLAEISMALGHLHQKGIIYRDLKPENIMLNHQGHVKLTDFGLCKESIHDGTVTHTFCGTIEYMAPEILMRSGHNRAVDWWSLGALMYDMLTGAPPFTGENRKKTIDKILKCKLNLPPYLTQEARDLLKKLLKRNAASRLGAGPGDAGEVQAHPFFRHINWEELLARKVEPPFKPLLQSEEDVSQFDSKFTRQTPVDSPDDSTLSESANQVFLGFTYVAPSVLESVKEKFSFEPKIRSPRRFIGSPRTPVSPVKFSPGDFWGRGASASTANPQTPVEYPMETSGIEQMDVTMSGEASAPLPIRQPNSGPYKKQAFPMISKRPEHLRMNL
# Rsk1, sequence (Q15418 whole entry): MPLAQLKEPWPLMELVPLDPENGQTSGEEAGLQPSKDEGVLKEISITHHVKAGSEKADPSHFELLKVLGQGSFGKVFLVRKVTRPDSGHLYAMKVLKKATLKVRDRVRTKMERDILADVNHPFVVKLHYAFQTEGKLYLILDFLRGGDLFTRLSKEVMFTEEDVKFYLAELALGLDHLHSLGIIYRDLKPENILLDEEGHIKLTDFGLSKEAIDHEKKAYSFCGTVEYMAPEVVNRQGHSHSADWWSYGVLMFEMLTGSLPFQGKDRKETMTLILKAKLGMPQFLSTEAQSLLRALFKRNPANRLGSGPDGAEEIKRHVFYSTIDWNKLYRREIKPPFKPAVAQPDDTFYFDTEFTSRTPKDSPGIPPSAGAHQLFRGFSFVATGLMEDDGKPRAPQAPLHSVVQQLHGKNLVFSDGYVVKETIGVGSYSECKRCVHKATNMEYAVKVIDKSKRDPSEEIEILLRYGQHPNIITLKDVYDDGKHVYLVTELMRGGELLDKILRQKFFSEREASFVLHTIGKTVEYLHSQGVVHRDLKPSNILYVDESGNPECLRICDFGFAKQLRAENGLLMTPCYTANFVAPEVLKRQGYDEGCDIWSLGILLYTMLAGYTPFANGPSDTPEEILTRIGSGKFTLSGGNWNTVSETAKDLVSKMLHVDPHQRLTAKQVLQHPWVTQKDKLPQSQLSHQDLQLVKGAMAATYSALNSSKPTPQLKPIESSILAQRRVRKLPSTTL
pIC50 (human Akt1),pIC50 (Rsk1),pIC50 (S6K1),SMILES
8.74,–,–,"Cc1ncccc1-c1ccc(NCCN2CCCC2)c(C2CCN(c3ncnc4c3C(C)C(=O)N4)CC2)n1 (stereo not shown) [Compound 22, 5-Methyl-4-(4-(2′-methyl-5-((2-(pyrrolidin-1-yl)ethyl)amino)-[2,3′-bipyridin]-6-yl)piperidin-1-yl)-5H-pyrrolo[2,3-d]pyrimidin-6(7H)-one]"
8.72,9.10,9.15,"COc1cc(-c2ccc(NCCN3CCCC3)c(C3CCN(c4ncnc5c4C(C)C(=O)N5)CC3)n2)c(F)cn1 (stereo not shown) [Compound 16, 4-(4-(5′-Fluoro-2′-methoxy-5-((2-(pyrrolidin-1-yl)ethyl)amino)-[2,4′-bipyridin]-6-yl)piperidin-1-yl)-5-methyl-5H-pyrrolo[2,3-d]pyrimidin-6(7H)-one]"
–,–,9.40,"Cc1nnc(-c2ccc(NCCN3CCCC3)c(C3CCN(c4ncnc5c4C(C)(C)C(=O)N5)CC3)n2)s1 [Compound 36, 5,5-Dimethyl-4-(4-(6-(5-methyl-1,3,4-thiadiazol-2-yl)-3-((2-(pyrrolidin-1-yl)ethyl)amino)pyridin-2-yl)piperidin-1-yl)-5H-pyrrolo[2,3-d]pyrimidin-6(7H)-one]"
–,–,9.10,"CC1C(=O)Nc2ncnc(N3CCN(c4nc(-c5cncc(F)c5)ccc4NCCN(C)C)CC3)c21 (stereo not shown) [Compound 29, 4-(4-(5-((2-(Dimethylamino)ethyl)amino)-5′-fluoro-[2,3′-bipyridin]-6-yl)piperazin-1-yl)-5-methyl-5H-pyrrolo[2,3-d]pyrimidin-6(7H)-one]"
–,8.82,9.52,"CC1(C)C(=O)Nc2ncnc(N3CCC(c4nc(-c5ccc(F)nc5)ccc4NCCN4CCCC4)CC3)c21 [Compound 2, 4-(4-(6′-Fluoro-5-((2-(pyrrolidin-1-yl)ethyl)amino)-[2,3′-bipyridin]-6-yl)piperidin-1-yl)-5,5-dimethyl-5H-pyrrolo[2,3-d]pyrimidin-6(7H)-one]"
–,–,9.40,"Cc1cc(-c2ccc(NCCN3CCCC3)c(C3CCN(c4ncnc5c4C(C)(C)C(=O)N5)CC3)n2)n(C)n1 [Compound 3, 4-(4-(6-(1,3-Dimethyl-1H-pyrazol-5-yl)-3-((2-(pyrrolidin-1-yl)ethyl)amino)pyridin-2-yl)piperidin-1-yl)-5,5-dimethyl-5H-pyrrolo[2,3-d]pyrimidin-6(7H)-one]"
8.57,–,–,"CC1C(=O)Nc2ncnc(N3CCC(c4nc(-c5ncco5)ccc4NCCN4CCCC4)CC3)c21 (stereo not shown) [Compound 25, 5-Methyl-4-(4-(6-(oxazol-2-yl)-3-((2-(pyrrolidin-1-yl)ethyl)amino)pyridin-2-yl)piperidin-1-yl)-5H-pyrrolo[2,3-d]pyrimidin-6(7H)-one]"
–,8.77,9.52,"CC1(C)C(=O)Nc2ncnc(N3CCC(c4nc(-c5cncc(F)c5)ccc4NCCN4CCCC4)CC3)c21 [Compound 8, 4-(4-(5′-Fluoro-5-((2-(pyrrolidin-1-yl)ethyl)amino)-[2,3′-bipyridin]-6-yl)piperidin-1-yl)-5,5-dimethyl-5H-pyrrolo[2,3-d]pyrimidin-6(7H)-one]"
–,8.77,9.52,"COc1cncc(-c2ccc(NCCN3CCCC3)c(C3CCN(c4ncnc5c4C(C)(C)C(=O)N5)CC3)n2)c1 [Compound 7, 4-(4-(5′-Methoxy-5-((2-(pyrrolidin-1-yl)ethyl)amino)-[2,3′-bipyridin]-6-yl)piperidin-1-yl)-5,5-dimethyl-5H-pyrrolo[2,3-d]pyrimidin-6(7H)-one]"

# Further lines, the compound ahead of its results:
SMILES,pIC50 (human Akt1),pIC50 (Rsk1),pIC50 (S6K1)
"CC(C)NCCNc1ccc(-c2cc(C(F)(F)F)nn2C)nc1C1CCN(c2ncnc3c2C(C)(C)C(=O)N3)CC1 [Compound 10, 4-(4-(3-((2-(Isopropylamino)ethyl)amino)-6-(1-methyl-3-(trifluoromethyl)-1H-pyrazol-5-yl)pyridin-2-yl)piperidin-1-yl)-5,5-dimethyl-5H-pyrrolo[2,3-d]pyrimidin-6(7H)-one]",–,9.05,9.52
"CC(C)NCCNc1ccc(-c2noc(C(F)(F)F)n2)nc1C1CCN(c2ncnc3c2C(C)(C)C(=O)N3)CC1 [Compound 42, 4-(4-(3-((2-(Isopropylamino)ethyl)amino)-6-(5-(trifluoromethyl)-1,2,4-oxadiazol-3-yl)pyridin-2-yl)piperidin-1-yl)-5,5-dimethyl-5H-pyrrolo[2,3-d]pyrimidin-6(7H)-one]",8.32,8.92,9.30
"Cc1nc(C)c(-c2ccc(NCCNC(C)C)c(C3CCN(c4ncnc5c4C(C)(C)C(=O)N5)CC3)n2)s1 [Compound 6, 4-(4-(6-(2,4-Dimethylthiazol-5-yl)-3-((2-(isopropylamino)ethyl)amino)pyridin-2-yl)piperidin-1-yl)-5,5-dimethyl-5H-pyrrolo[2,3-d]pyrimidin-6(7H)-one]",–,9.00,9.40
"CN(C)CCNc1ccc(-c2cc(Cl)nn2C)nc1C1CCN(c2ncnc3c2C(C)(C)C(=O)N3)CC1 [Compound 9, 4-(4-(6-(3-Chloro-1-methyl-1H-pyrazol-5-yl)-3-((2-(dimethylamino)ethyl)amino)pyridin-2-yl)piperidin-1-yl)-5,5-dimethyl-5H-pyrrolo[2,3-d]pyrimidin-6(7H)-one]",–,8.96,9.52
"CC1(C)C(=O)Nc2ncnc(N3CCC(c4nc(-c5nnc(C(F)(F)F)o5)ccc4NC[C@@H]4CCCN4)CC3)c21 [Compound 35, (S)-5,5-Dimethyl-4-(4-(3-((pyrrolidin-2-yl-methyl)amino)-6-(5-(trifluoromethyl)-1,3,4-oxadiazol-2-yl)pyridin-2-yl)piperidin-1-yl)-5H-pyrrolo[2,3-d]pyrimidin-6(7H)-one]",–,8.82,9.40
"CN(C)CCNc1ccc(-c2nnc(C(F)F)s2)nc1C1CCN(c2ncnc3c2C(C)(C)C(=O)N3)CC1 [Compound 38, 4-(4-(6-(5-(Difluoromethyl)-1,3,4-thiadiazol-2-yl)-3-((2-(dimethylamino)ethyl)amino)pyridin-2-yl)piperidin-1-yl)-5,5-dimethyl-5H-pyrrolo[2,3-d]pyrimidin-6(7H)-one]",–,9.05,9.52
CC(C)(C)NCCNc1ccc(-c2cnn(C(F)F)c2)nc1C1CCN(c2ncnc3c2C(C)(C)C(=O)N3)CC1 [Compound 4],–,–,9.40
"CCNCCNc1ccc(-c2cncc(F)c2)nc1C1CCN(c2ncnc3c2C(C)(C)C(=O)N3)CC1 [Compound 12, 4-(4-(5-((2-(Ethylamino)ethyl)amino)-5′-fluoro[2,3′-bipyridin]-6-yl)piperidin-1-yl)-5,5-dimethyl-5H-pyrrolo[2,3-d]pyrimidin-6(7H)-one]",–,8.74,9.52
"CC(C)NCCNc1cc(F)c(-c2cncc(F)c2)nc1C1CCN(c2ncnc3c2C(C)(C)C(=O)N3)CC1 [Compound 28, 4-(4-(3,5′-Difluoro-5-((2-(isopropylamino)ethyl)amino)-[2,3′-bipyridin]-6-yl)piperidin-1-yl)-5,5-dimethyl-5H-pyrrolo[2,3-d]pyrimidin-6(7H)-one]",–,–,9.52
